Test in all cases: relative cell number vs DMSO control (72 h) (% of DMSO); higher = less growth inhibition (more cells)
Common to all, as to conditions: sgRNA knockout: sgNT

Assay [1] concerns BT-20. The method, then: (§1)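 QMAP-Seq: a pool of 5 breast cancer cell lines (ZR-75-1, SKBR3, HCC-38, MDA-MB-231, BT-20), each carrying 12 doxycycline-inducible Cas9 sgRNA perturbations (11 knockouts plus non-targeting sgNT), was treated with compounds for 72 h at four 10-fold doses (10 nM-10 uM or 1 nM-1 uM range). Barcodes were amplified and sequenced, and cell number was interpolated from 293T spike-in standard curves. The result is expressed as % of the median of DMSO wells. Two biological replicates.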

In assay [2] the test system is HCC-38. The method, then:
as §1

For assay [3], the system named is MDA-MB-231. The method, then:
as §1

Assay [4] deals with SKBR3. The procedure: as §1
The test system of assay [5] is ZR-75-1. The procedure:
as §1

The structures appear in SMILES notation. ± gives the standard deviation of the averaged measurements.

With `CC(C)C[C@H](NC(=O)CNC(=O)c1cc(Cl)ccc1Cl)B(O)O` [MLN2238], the relative cell number in assay [1] (10 nM) turned out to be 85.1 ± 6.1; in assay [1] (100 nM), 91 ± 27; in assay [1] (1000 nM) it was 40.2 ± 3.5; in assay [1] (10000 nM) it was 15 ± 6.4; in assay [2] (10 nM), 91.7 ± 16; in assay [2] (100 nM), 50.2 ± 2.5. The relative cell number in assay [2] (1000 nM) was 5.9 ± 0.86; in assay [2] (10000 nM) it was 4.82 ± 1.7; in assay [3] (10 nM), 94.1 ± 17; in assay [3] (100 nM), 65.3 ± 5; in assay [3] (1000 nM), 8.44 ± 0.14; in assay [3] (10000 nM) it was 4.72 ± 0.16. The relative cell number in assay [4] (10 nM) was determined as 87.5 ± 27; in assay [4] (100 nM), 54.1 ± 9.5; in assay [4] (1000 nM), 9.25 ± 0.68; in assay [4] (10000 nM), 2.47 ± 0.24; in assay [5] (10 nM), 93.7 ± 33; in assay [5] (100 nM) it was 81.4 ± 28. In addition, the results for the relative cell number in assay [5] (1000 nM) and in assay [5] (10000 nM) were 17.8 ± 7.5 and 10.9 ± 8, respectively.
In the case of `O=c1[nH]cc(F)c(=O)[nH]1` [5-Fluorouracil], the relative cell number was found to be 115 ± 7.9 in assay [1] (10 nM); 110 ± 3.4 in assay [1] (100 nM); 78.4 ± 7 in assay [1] (1000 nM); 57.9 ± 2.7 in assay [1] (10000 nM); 95.2 ± 6.8 in assay [2] (10 nM); 121 ± 15 in assay [2] (100 nM). The relative cell number in assay [2] (1000 nM) came to 107 ± 21; in assay [2] (10000 nM), 66.2 ± 6.2; in assay [3] (10 nM) it was 86.6 ± 16; in assay [3] (100 nM), 113 ± 28; in assay [3] (1000 nM), 119 ± 16; in assay [3] (10000 nM), 49.2 ± 6.5. For the same molecule, the relative cell number is 97.9 ± 14 in assay [4] (10 nM); 79.7 ± 19 in assay [4] (100 nM); 65.4 ± 18 in assay [4] (1000 nM); 17.5 ± 3.4 in assay [4] (10000 nM); 103 ± 28 in assay [5] (10 nM); 83.2 ± 13 in assay [5] (100 nM). For the same molecule, the results for the relative cell number in assay [5] (1000 nM) and in assay [5] (10000 nM) were 51.6 ± 1.8 and 41 ± 11, respectively.
`CC(C)(C)c1nc(-c2cccc(NS(=O)(=O)c3c(F)cccc3F)c2F)c(-c2ccnc(N)n2)s1` [Dabrafenib]: the relative cell number in assay [1] (10 nM) was 134 ± 10; in assay [1] (100 nM), 116 ± 16; in assay [1] (1000 nM), 109 ± 12; in assay [1] (10000 nM) it was 112 ± 1.6; in assay [2] (10 nM), 141 ± 32; in assay [2] (100 nM) it was 96.9 ± 5.1. The relative cell number in assay [2] (1000 nM) came out at 93.8 ± 4.2; in assay [2] (10000 nM), 94.7 ± 7.9; in assay [3] (10 nM), 106 ± 7.5; in assay [3] (100 nM), 137 ± 23; in assay [3] (1000 nM) it was 91.8 ± 27; in assay [3] (10000 nM), 115 ± 10. Besides, the relative cell number in assay [4] (10 nM) was 133 ± 3.3; in assay [4] (100 nM) it was 121 ± 1.7; in assay [4] (1000 nM) it was 96.5 ± 9.5; in assay [4] (10000 nM), 104 ± 14; in assay [5] (10 nM), 129 ± 31; in assay [5] (100 nM) it was 128 ± 3.2. The relative cell number in assay [5] (1000 nM) was found to be 119 ± 46; in assay [5] (10000 nM), 76.8 ± 7.1.
Turning to `CC(=O)c1c(C)c2cnc(Nc3ccc(N4CCNCC4)cn3)nc2n(C2CCCC2)c1=O` [Palbociclib], the relative cell number stood at 87.4 ± 11 in assay [1] (10 nM); 41.8 ± 13 in assay [1] (100 nM); 45.8 ± 1.1 in assay [1] (1000 nM); 53.889 ± 0.041 in assay [1] (10000 nM); 74.3 ± 13 in assay [2] (10 nM); 37.4 ± 10 in assay [2] (100 nM). For the same molecule, the relative cell number is 44.4 ± 2 in assay [2] (1000 nM); 42.2 ± 0.9 in assay [2] (10000 nM); 97.3 ± 57 in assay [3] (10 nM); 30.6 ± 16 in assay [3] (100 nM); 22.5 ± 2.1 in assay [3] (1000 nM); 22.1 ± 6 in assay [3] (10000 nM). The relative cell number in assay [4] (10 nM) was 90.3 ± 0.5; in assay [4] (100 nM), 52.1 ± 5.9; in assay [4] (1000 nM), 51.3 ± 4.3; in assay [4] (10000 nM), 43.8 ± 16; in assay [5] (10 nM), 66.5 ± 20; in assay [5] (100 nM), 36.6 ± 2.5. In addition, the relative cell number was found to be 30 ± 3.5 in assay [5] (1000 nM) and 29.9 ± 3 in assay [5] (10000 nM).
Consider `COc1cc2nccc(Oc3ccc(NC(=O)C4(C(=O)Nc5ccc(F)cc5)CC4)cc3)c2cc1OC` [Cabozantinib], for which the relative cell number is 110 ± 3.4 in assay [1] (10 nM); 98.3 ± 13 in assay [1] (100 nM); 94.5 ± 5 in assay [1] (1000 nM); 49.8 ± 18 in assay [1] (10000 nM); 87.7 ± 22 in assay [2] (10 nM); 104 ± 2.3 in assay [2] (100 nM). For the same molecule, the relative cell number in assay [2] (1000 nM) is 97.8 ± 2.8; in assay [2] (10000 nM), 61.9 ± 9.7; in assay [3] (10 nM), 103 ± 8.6; in assay [3] (100 nM) it was 88.2 ± 3.7; in assay [3] (1000 nM) it was 100 ± 3.8; in assay [3] (10000 nM), 36.7 ± 24. Further, the relative cell number in assay [4] (10 nM) was 128 ± 10; in assay [4] (100 nM), 130 ± 11; in assay [4] (1000 nM) it was 82.9 ± 26; in assay [4] (10000 nM), 25.8 ± 17; in assay [5] (10 nM) it was 132 ± 14; in assay [5] (100 nM), 102 ± 2.8. For the same molecule, the values for the relative cell number in assay [5] (1000 nM) and in assay [5] (10000 nM) were 111 ± 40 and 28.3 ± 19, respectively.
`FC(F)c1nc2ccccc2n1-c1nc(N2CCOCC2)nc(N2CCOCC2)n1` [ZSTK474]: the relative cell number in assay [1] (10 nM) amounted to 79.2 ± 5; in assay [1] (100 nM), 99.2 ± 19; in assay [1] (1000 nM), 70.9 ± 21; in assay [1] (10000 nM), 55.4 ± 3; in assay [2] (10 nM), 90.3 ± 4.3; in assay [2] (100 nM) it was 94.3 ± 9.2. The relative cell number was 83.4 ± 7.9 in assay [2] (1000 nM); 56.2 ± 1.8 in assay [2] (10000 nM); 92.9 ± 15 in assay [3] (10 nM); 89.6 ± 34 in assay [3] (100 nM); 81.7 ± 4.7 in assay [3] (1000 nM); 76.3 ± 15 in assay [3] (10000 nM). Further, the relative cell number in assay [4] (10 nM) worked out at 93.1 ± 1.6; in assay [4] (100 nM) it was 85 ± 15; in assay [4] (1000 nM) it was 60.2 ± 41; in assay [4] (10000 nM) it was 39.1 ± 6.5; in assay [5] (10 nM), 85.1 ± 10; in assay [5] (100 nM), 96.2 ± 4.4. Besides, the results for the relative cell number in assay [5] (1000 nM) and in assay [5] (10000 nM) were 53.6 ± 27 and 50 ± 12, respectively.

Source of the values: the supplement of paper PMC7661543.
